Test results published in patent US10457637B2, “Benzenesulfonamide derivatives as inverse agonists of retinoid-related orphan receptor gamma (RORγ(T))” (GALDERMA RESEARCH & DEVELOPMENT, priority 2014, dated 2019).

Target: ROR gamma ligand-binding domain (hRORg) (Homo sapiens (Human), UniProt P51449)
Assay: GAL4-RORγ transactivation (luciferase reporter, HG5LN HeLa line)
Type: cell-based
Details: 18 hours incubation
Text: GAL4-RORγ Transactivation
The RORγ transactivation model was developed from the line HG5LN, which is a HeLa line that stably expresses a luciferase reporter gene controlled by a pentamer of the GAL4 recognition domain of yeast and of a β-globin promoter. The HG5LN line was stably transfected by the DNA-binding domain (DBD) of GAL4 fused to the ROR gamma ligand-binding domain (LBD). Molecules that inhibit the ROR gamma constitutive activity reduce the luciferase expression, thus leading to a reduction in the emitted luminescence.
The cells are seeded in 384-well plates (5000 cells in 45 μL/well of culture medium containing 10% fetal calf serum) and incubated for 4 hours at 37° C., 5% CO2. 5 μL of the test molecules (compounds described in the tables described above) are then added to each well and the plates are incubated for 18 hours at a temperature of 37° C. under 5% of CO2. 20 μL of luciferase substrate (Promega) are added to each well and the luminescence emitted is read by a microplate reader.
The luminescence units (“RLU”) are normalized by positive controls (“POS” containing a saturated concentration of benzenesulfonamide, N-(2,2,2-trifluoroethyl)-N-[4-[2,2,2-trifluoro-1-hydroxy-1-(trifluoromethyl)ethyl]phenyl]) and negative controls (“NEG” containing DMSO): % inhibition=((RLU−NEG)*100)/(POS−NEG). The IC50 values are calculated from a 4-parameter logistic model using the XLFit software (IDBS).

Chain of ROR gamma ligand-binding domain (hRORg) (P51449 269-508): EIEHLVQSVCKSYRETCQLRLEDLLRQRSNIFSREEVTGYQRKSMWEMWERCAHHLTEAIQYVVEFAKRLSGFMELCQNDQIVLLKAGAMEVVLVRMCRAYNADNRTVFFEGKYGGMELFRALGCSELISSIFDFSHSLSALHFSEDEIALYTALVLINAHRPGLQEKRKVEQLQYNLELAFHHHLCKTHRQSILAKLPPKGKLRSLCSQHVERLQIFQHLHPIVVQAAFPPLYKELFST

Row | SMILES | IC50
1 | CCc1ccc(N(CC(C)C)S(=O)(=O)c2ccc(OCc3cc(C)nc(C)c3)c(S(C)(=N)=O)c2)cc1 (centres unmarked) [compound 43, 4-((2,6-dimethylpyridin-4-yl)methoxy)-N-(4-ethylphenyl)-N-isobutyl-3-(S-methylsulfonimidoyl)benzenesulfonamide] | > 1 µM
2 | CCc1ccc(N(CC(C)C)S(=O)(=O)c2ccc(OCc3ccc(F)cc3F)c(S(C)(=N)=O)c2)cc1 (centres unmarked) [compound 45, 4-((2,4-difluorobenzyl)oxy)-N-(4-ethylphenyl)-N-isobutyl-3-(S-methylsulfonimidoyl)benzenesulfonamide] | > 1 µM
3 | CCc1ccc(N(CC(C)C)S(=O)(=O)c2ccc3c(c2)S(=N)(=O)CN3CC2CCOCC2)cc1 (centres unmarked) [compound 76, 1-imino-1-oxo-3-(tetrahydropyran-4-ylmethyl)-2,3-dihydro-1H-1λ^6-benzothiazole-6-sulfonic acid (4-ethylphenyl)isobutylamide] | > 1 µM
4 | CCc1ccc(N(CC(C)C)S(=O)(=O)c2ccc(OC[C@H]3CNC(=O)O3)c(S(C)(=N)=O)c2)cc1 (stereo partly drawn) [compound 79, N-(4-ethylphenyl)-N-isobutyl-3-(S-methylsulfonimidoyl)-4-(((R)-2-oxooxazolidin-5-yl)methoxy)benzenesulfonamide] | > 1 µM
5 | CCc1ccc(N(CC(C)C)S(=O)(=O)c2ccc(OCC3CCN(C(C)=O)CC3)c(S(C)(=N)=O)c2)cc1 (centres unmarked) [compound 50, 4-((1-acetylpiperidin-4-yl)methoxy)-N-(4-ethylphenyl)-N-isobutyl-3-(S-methylsulfonimidoyl)benzenesulfonamide] | > 1 µM
6 | CCc1ccc(N(CC(C)C)S(=O)(=O)c2ccc(NCC3CCC(=O)NC3)c(S(C)(=N)=O)c2)cc1 (centres unmarked) [compound 58, N-(4-ethylphenyl)-N-isobutyl-3-(S-methylsulfonimidoyl)-4-(((6-oxopiperidin-3-yl)methyl)amino)benzenesulfonamide] | > 1 µM
7 | CCc1ccc(N(CC(C)C)S(=O)(=O)c2ccc(NCC3CN(C(=O)OC)C3)c(S(C)(=N)=O)c2)cc1 (centres unmarked) [compound 89, methyl 3-(((4-(N-(4-ethylphenyl)-N-isobutylsulfamoyl)-2-(S-methylsulfonimidoyl)phenyl)amino)methyl)azetidine-1-carboxylate] | > 1 µM
8 | CCc1ccc(N(CC(C)C)S(=O)(=O)c2ccc(OCCc3ccno3)c(S(C)(=N)=O)c2)cc1 (centres unmarked) [compound 38, N-(4-ethylphenyl)-N-isobutyl-4-(2-(isoxazol-5-yl)ethoxy)-3-(S-methylsulfonimidoyl)benzenesulfonamide] | > 1 µM
9 | CCc1ccc(N(CC(C)C)S(=O)(=O)c2ccc(OCC(O)CO)c(S(C)(=N)=O)c2)cc1 (centres unmarked) [compound 40, 4-(2,3-dihydroxypropoxy)-N-(4-ethylphenyl)-N-isobutyl-3-(S-methylsulfonimidoyl)benzenesulfonamide] | > 1 µM
10 | CCc1ccc(N(CC(C)C)S(=O)(=O)c2ccc(N3CCNCC3)c(S(C)(=N)=O)c2)cc1 (centres unmarked) [compound 140, N-(4-ethylphenyl)-N-isobutyl-3-(S-methylsulfonimidoyl)-4-(piperazin-1-yl)benzenesulfonamide] | > 1 µM
11 | CCc1ccc(N(CC(C)C)S(=O)(=O)c2ccc3c(c2)NCCS3)cc1 [compound 9, 3,4-dihydro-2H-benzo[1,4]thiazine-6-sulfonic acid (4-ethylphenyl)isobutylamide] | > 1 µM
12 | CCc1ccc(N(CC(C)C)S(=O)(=O)c2ccc3c(c2)[S+]([O-])CN3CC2CCOCC2)cc1 (centres unmarked) [compound 75, 1-oxo-3-(tetrahydropyran-4-ylmethyl)-2,3-dihydro-1H-1λ^4-benzothiazole-6-sulfonic acid (4-ethylphenyl)isobutylamide] | > 1 µM
13 | CCc1ccc(N(CC(C)C)S(=O)(=O)c2ccc(NCc3ccnc(C)c3)c(S(C)(=N)=O)c2)cc1 (centres unmarked) [compound 90, N-(4-ethylphenyl)-N-isobutyl-4-(((2-methylpyridin-4-yl)methyl)amino)-3-(S-methylsulfonimidoyl)benzenesulfonamide] | > 1 µM
14 | CCc1ccc(N(CC(C)C)S(=O)(=O)c2ccc(OCC3(C)COC3)c(S(C)(=N)=O)c2)cc1 (centres unmarked) [compound 34, N-(4-ethylphenyl)-N-isobutyl-4-((3-methyloxetan-3-yl)methoxy)-3-(S-methylsulfonimidoyl)benzenesulfonamide] | > 1 µM
15 | CCc1ccc(N(CC(C)C)S(=O)(=O)c2ccc(N3CC4(CNC4)C3)c(S(C)(=N)=O)c2)cc1 (centres unmarked) [compound 121, -(4-ethylphenyl)-N-isobutyl-3-(S-methylsulfonimidoyl)-4-(2,6-diazaspiro[3.3]heptan-2-yl)benzenesulfonamide] | > 1 µM
16 | CCc1ccc(N(CC(C)C)S(=O)(=O)c2ccc(NCC3CCN(C(C)=O)C3)c(S(C)(=N)=O)c2)cc1 (centres unmarked) [compound 100, 4-(((1-acetylpyrrolidin-3-yl)methyl)amino)-N-(4-ethylphenyl)-N-isobutyl-3-(S-methylsulfonimidoyl)benzenesulfonamide] | > 1 µM

Now from value to compound:

Row | IC50 | SMILES
17 | > 1 µM | CCc1ccc(N(CC(C)C)S(=O)(=O)c2ccc(NC[C@@H]3CNC(=O)O3)c(S(C)(=N)=O)c2)cc1 (stereo partly drawn) [compound 105, N-(4-ethylphenyl)-N-isobutyl-3-(S-methylsulfonimidoyl)-4-((((R)-2-oxooxazolidin-5-yl)methyl)amino)benzenesulfonamide]
18 | 0.1 to 1 µM | CCc1ccc(N(CC(C)C)S(=O)(=O)c2ccc(NCC3CC4(COC4)C3)c(S(C)(=N)=O)c2)cc1 (centres unmarked) [compound 95, 4-(((2-oxaspiro[3.3]heptan-6-yl)methyl)amino)-N-(4-ethylphenyl)-N-isobutyl-3-(S-methylsulfonimidoyl)benzenesulfonamide]
19 | > 1 µM | CCc1ccc(N(CC(C)C)S(=O)(=O)c2ccc3c(c2)SC(C)(C)N3CC2CCOCC2)cc1 [compound 73, 2,2-dimethyl-3-(tetrahydropyran-4-ylmethyl)-2,3-dihydrobenzothiazole-6-sulfonic acid (4-ethylphenyl)isobutylamide]
20 | > 1 µM | CCc1ccc(N(CC(C)C)S(=O)(=O)c2ccc(OCC3CCN(C(=O)OC(C)(C)C)CC3)c(S(C)(=N)=O)c2)cc1 (centres unmarked) [compound 36, tert-butyl 4-((4-(N-(4-ethylphenyl)-N-isobutylsulfamoyl)-2-(S-methylsulfonimidoyl)phenoxy)methyl)piperidine-1-carboxylate]
21 | > 1 µM | CCc1ccc(N(CC(C)C)S(=O)(=O)c2ccc([S+]([O-])CC3CCOCC3)c(C(=O)OC)c2)cc1 (centres unmarked) [compound 16, methyl 5-[(4-ethylphenyl)isobutylsulfamoyl]-2-(tetrahydropyran-4-ylmethanesulfinyl)benzoate]
22 | 0.1 to 1 µM | CCc1ccc(N(CC(C)C)S(=O)(=O)c2ccc(NCC3CCS(=O)(=O)C3)c(S(C)(=N)=O)c2)cc1 (centres unmarked) [compound 56, 4-(((1,1-dioxidotetrahydrothiophen-3-yl)methyl)amino)-N-(4-ethylphenyl)-N-isobutyl-3-(S-methylsulfonimidoyl)benzenesulfonamide]
23 | 0.1 to 1 µM | CCc1ccc(N(CC(C)C)S(=O)(=O)c2ccc(N3CCC4(CC3)COC4)c(S(C)(=N)=O)c2)cc1 (centres unmarked) [compound 114, N-(4-ethylphenyl)-N-isobutyl-3-(S-methylsulfonimidoyl)-4-(2-oxa-7-azaspiro[3.5]nonan-7-yl)benzenesulfonamide]
24 | 0.1 to 1 µM | CCc1ccc(N(CC(C)C)S(=O)(=O)c2ccc(NCc3c(C)noc3C)c(S(C)(=N)=O)c2)cc1 (centres unmarked) [compound 97, 4-(((3,5-dimethylisoxazol-4-yl)methyl)amino)-N-(4-ethylphenyl)-N-isobutyl-3-(S-methylsulfonimidoyl)benzenesulfonamide]
25 | < 0.1 µM | CCc1ccc(N(CC(C)C)S(=O)(=O)c2ccc(OCC3C4COCC43)c(S(C)(=N)=O)c2)cc1 (centres unmarked) [compound 31, 4-((3-oxabicyclo[3.1.0]hexan-6-yl)methoxy)-N-(4-ethylphenyl)-N-isobutyl-3-(S-methylsulfonimidoyl)benzenesulfonamide]
26 | 0.1 to 1 µM | CCc1ccc(N(CC(C)C)S(=O)(=O)c2ccc(NCC3CCOCC3)c(S(N)(=O)=O)c2)cc1 [compound 67, 4-[(tetrahydropyran-4-ylmethyl)amino]benzene-1,3-disulfonic acid 3-amide 1-[(4-ethylphenyl)isobutylamide]]
27 | 0.1 to 1 µM | CCc1ccc(N(CC(C)C)S(=O)(=O)c2ccc(NCC3CNC(=O)C3)c(S(C)(=N)=O)c2)cc1 (centres unmarked) [compound 59, N-(4-ethylphenyl)-N-isobutyl-3-(S-methylsulfonimidoyl)-4-(((5-oxopyrrolidin-3-yl)methyl)amino)benzenesulfonamide]
28 | 0.1 to 1 µM | CCc1ccc(N(CC(C)C)S(=O)(=O)c2ccc(N3CC4(C3)CS(=O)(=O)C4)c(S(C)(=N)=O)c2)cc1 (centres unmarked) [compound 113, 4-(2,2-dioxido-2-thia-6-azaspiro[3.3]heptan-6-yl)-N-(4-ethylphenyl)-N-isobutyl-3-(S-methylsulfonimidoyl)benzenesulfonamide]
29 | 0.1 to 1 µM | CCc1ccc(N(CC(C)C)S(=O)(=O)c2ccc(N3C[C@H]4C[C@@H]3CO4)c(S(C)(=N)=O)c2)cc1 (stereo partly drawn) [compound 115, 4-((1R,4R)-2-oxa-5-azabicyclo[2.2.1]heptan-5-yl)-N-(4-ethylphenyl)-N-isobutyl-3-(S-methylsulfonimidoyl)benzenesulfonamide]
